Test results reported in patent US8552176B2 (priority 2010, dated 2013).

Legend:
Test in all cases: cells
Assay type in all cases: cell-based, human
MCF7 = settings: read-out: GI50 MCF7 breast
HCT-15 = settings: read-out: GI50 HCT-15 colorectal
DU-145 = settings: read-out: GI50 DU-145 prostate
HT29 = settings: read-out: GI50 HT29 colorectal
A549 = settings: read-out: GI50 A549 lung (+p53)
SKOV3 = settings: read-out: GI50 SKOV3 ovary
Hep3b = settings: read-out: GI50 Hep3b liver
H1299 = settings: read-out: GI50 H1299 lung (−p53)
NCI-H460 = settings: read-out: GI50 NCI-H460 lung
SF-268 = settings: read-out: GI50 SF-268 CNS

Compound | GI50 (MCF7) | GI50 (HCT-15) | GI50 (DU-145) | GI50 (HT29) | GI50 (A549) | GI50 (SKOV3) | GI50 (Hep3b) | GI50 (H1299) | GI50 (NCI-H460) | GI50 (SF-268)
CON(CCCCc1ccc(N(CCCl)CCCl)cc1)C1CC(O)C(O)CO1 (mixture of isomers) [Compound 55] | 0.96 ± 0.02 µM | 2.3 ± 0.1 µM | 4 ± 0.1 µM | 2.6 ± 0.1 µM | 2.6 ± 0.2 µM | 2 ± 0.1 µM | 2.6 ± 0.1 µM | 3.7 ± 0.2 µM | 5.8 ± 0.6 µM | 2.1 ± 0.1 µM
CON(CCCCc1ccc(N(CCCl)CCCl)cc1)C1CC(O)C(O)CO1 (mixture of isomers) [Compound 56] | 1.3 ± 0.2 µM | 2.2 ± 0.1 µM | 3.3 ± 0.1 µM | 2.3 ± 0.1 µM | 2.5 ± 0.1 µM | 2.2 ± 0.1 µM | 2.5 ± 0.1 µM | 3.9 ± 0.5 µM | 5.2 ± 0.6 µM | 2 ± 0.1 µM
CC(=O)OC1COC(N(CCCCc2ccc(N(CCCl)CCCl)cc2)OC(C)=O)C(OC(C)=O)C1OC(C)=O (mixture of isomers) [Compound 69, N-Acetoxy-4-(4-N′,N′-bis(2-chloroethyl)amino)phenylbutylamino-D-riboside peracetate] | 4.6 ± 0.3 µM | 1.1 ± 0.1 µM | > 5 µM | 0.96 ± 0.07 µM | 1.12 ± 0.07 µM | 0.53 ± 0.01 µM | > 5 µM | 1.05 ± 0.05 µM | 1.3 ± 0.1 µM | 1.6 ± 0.1 µM
O=C(CCCc1ccc(N(CCCl)CCCl)cc1)NN=CC(O)C(O)CO (mixture of isomers) [Compound 74, 4-(4-N′,N′-bis(2-chloroethyl)amino)phenylbutylhydrazido-D-threoside inline] | 4.2 ± 0.2 µM | 7.3 ± 0.4 µM | 9.5 ± 0.7 µM | 4.8 ± 0.1 µM | 7.5 ± 0.5 µM | 6.2 ± 0.6 µM | 4.1 ± 0.4 µM | 2.6 ± 0.2 µM | 10.8 ± 0.8 µM | 2.6 ± 0.2 µM
CON(CCCCc1ccc(N(CCCl)CCCl)cc1)C1OC(COCc2ccccc2)C(OCc2ccccc2)C1OCc1ccccc1 (stereo not drawn) [Compound 16] | 82 ± 1 µM | 64 ± 8 µM | > 100 µM | 47 ± 1 µM | > 100 µM | > 100 µM | > 100 µM | > 100 µM | > 100 µM | 80 ± 5 µM
CON(CCCCc1ccc(N(CCCl)CCCl)cc1)C1OCC(O)C1O (stereo not drawn) [Compound 19] | 8 ± 0.1 µM | 0.77 ± 0.09 µM | 5 ± 0.7 µM | 1.6 ± 0.1 µM | 3.1 ± 0.8 µM | 2.6 ± 0.9 µM | 4.1 ± 0.9 µM | 1.1 ± 0.1 µM | 7.8 ± 0.9 µM | 2.4 ± 0.8 µM
CON(CCCCc1ccc(N(CCCl)CCCl)cc1)C1OC(CO)C(O)C(O)C1O (stereo not drawn) [Compound 28] | 1.5 ± 0.1 µM | 2.8 ± 0.2 µM | 5.5 ± 0.2 µM | 2.9 ± 0.4 µM | 4.5 ± 0.2 µM | 3 ± 0.1 µM | 3.4 ± 0.1 µM | 1.4 ± 0.1 µM | 12.3 ± 0.7 µM | 1.8 ± 0.1 µM
CON(CCCCc1ccc(N(CCCl)CCCl)cc1)C1OC(CO)C(O)C(O)C1O (stereo not drawn) [Compound 29] | 1.8 ± 0.2 µM | 2.8 ± 0.2 µM | 7 ± 0.5 µM | 4.6 ± 0.4 µM | 6.8 ± 0.8 µM | 4.5 ± 0.6 µM | 5 ± 0.6 µM | 1.6 ± 0.1 µM | 14.3 ± 0.9 µM | 2.2 ± 0.1 µM
CON(CCCCc1ccc(N(CCCl)CCCl)cc1)C1CC(O)C(O)C(CO)O1 (stereo not drawn) [Compound 30] | 5.4 ± 0.1 µM | 0.7 ± 0.05 µM | 4.3 ± 0.3 µM | 1.2 ± 0.2 µM | 3.1 ± 0.5 µM | 1.12 ± 0.1 µM | 3.7 ± 0.3 µM | 0.58 ± 0.06 µM | 5.4 ± 0.6 µM | 2.5 ± 0.5 µM
CON(CCCCc1ccc(N(CCCl)CCCl)cc1)C1OC(CO)C(O)C(O)C1F (stereo not drawn) [Compound 31] | 7.3 ± 0.1 µM | 1.08 ± 0.04 µM | 4.2 ± 0.1 µM | 2.4 ± 0.2 µM | 2.6 ± 0.1 µM | 2 ± 0.1 µM | 3.2 ± 0.1 µM | 1.2 ± 0.1 µM | 6.4 ± 0.07 µM | 2.2 ± 0.1 µM
CON(CCCCc1ccc(N(CCCl)CCCl)cc1)C1OC(CO)C(O)C(F)C1O (stereo not drawn) [Compound 32] | 7 ± 0.8 µM | 1.2 ± 0.1 µM | 4.1 ± 0.1 µM | 2.6 ± 0.2 µM | 3 ± 0.1 µM | 2.2 ± 0.1 µM | 3.2 ± 0.1 µM | 1.3 ± 0.1 µM | 7.1 ± 0.9 µM | 2.2 ± 0.1 µM
COC1C(O)C(CO)OC(N(CCCCc2ccc(N(CCCl)CCCl)cc2)OC)C1O (stereo not drawn) [Compound 33] | 8.3 ± 0.1 µM | 1.1 ± 0.1 µM | 5.1 ± 0.1 µM | 2.7 ± 0.2 µM | 3.6 ± 0.2 µM | 2.4 ± 0.1 µM | 4.2 ± 0.2 µM | 1.7 ± 0.1 µM | 7.8 ± 0.08 µM | 2.8 ± 0.1 µM
C=CCOC(=O)NCC1OC(N(CCCCc2ccc(N(CCCl)CCCl)cc2)OC)C(O)C(O)C1O (stereo not drawn) [Compound 35] | 7.4 ± 0.1 µM | 2.1 ± 0.1 µM | 6.2 ± 0.4 µM | 2.8 ± 0.2 µM | 4.5 ± 0.3 µM | 2.9 ± 0.1 µM | 4.6 ± 0.2 µM | 2.1 ± 0.1 µM | 11 ± 0.1 µM | 3.1 ± 0.1 µM
CON(CCCCc1ccc(N(CCCl)CCCl)cc1)C1OC(CCl)C(O)C(O)C1O (stereo not drawn) [Compound 36] | 4.9 ± 0.1 µM | 1.2 ± 0.1 µM | 3.7 ± 0.1 µM | 2.1 ± 0.1 µM | 3 ± 0.1 µM | 2.1 ± 0.1 µM | 3.2 ± 0.2 µM | 1.3 ± 0.1 µM | 5.8 ± 0.6 µM | 2.1 ± 0.1 µM
CON(CCCCc1ccc(N(CCCl)CCCl)cc1)C1OC(C(=O)O)C(O)C(O)C1O (stereo not drawn) [Compound 38] | 6 ± 0.1 µM | 1.03 ± 0.05 µM | 3.9 ± 0.1 µM | 3.2 ± 0.3 µM | 5.5 ± 0.3 µM | 3.1 ± 0.1 µM | 4.9 ± 0.3 µM | 0.99 ± 0.03 µM | 9.1 ± 0.9 µM | 1.6 ± 0.1 µM
CON(CCCCc1ccc(N(CCCl)CCCl)cc1)C1O[C@H](CO)[C@@H](O[C@@H]2O[C@H](CO)[C@H](O)[C@H](O)[C@H]2O)[C@H](O)[C@@H]1O (stereo partly drawn) [Compound 46] | 26 ± 2 µM | 31 ± 1 µM | 43 ± 3 µM | 34 ± 3 µM | 56 ± 1 µM | 35 ± 1 µM | 38 ± 2 µM | 24 ± 1 µM | 57.7 ± 0.5 µM | 19.1 ± 0.7 µM
CON(CCCCc1ccc(N(CCCl)CCCl)cc1)[C@@H]1O[C@H](CO[C@H]2O[C@H](CO)[C@H](O)[C@H](O)[C@H]2O)[C@@H](O)[C@H](O)[C@H]1O [Compound 47] | 21 ± 2 µM | 20 ± 1 µM | 36 ± 1 µM | 27.4 ± 0.3 µM | 40 ± 2 µM | 27 ± 1 µM | 29 ± 3 µM | 17.8 ± 0.06 µM | 45.5 ± 0.4 µM | 16.3 ± 0.5 µM
CON(CCCCc1ccc(N(CCCl)CCCl)cc1)[C@@H]1O[C@H](CO)[C@@H](O)[C@H](O[C@H](C)C(=O)O)[C@H]1NC(C)=O [Compound 48] | 4.5 ± 0.3 µM | 3.1 ± 0.2 µM | 8.9 ± 0.3 µM | 6.3 ± 0.3 µM | 8.6 ± 0.6 µM | 7 ± 0.2 µM | 8 ± 0.4 µM | 2.4 ± 0.2 µM | 13.1 ± 0.3 µM | 4.1 ± 0.1 µM
CO[C@@H]1[C@@H](OC(N)=O)[C@@H](O)C(N(CCCCc2ccc(N(CCCl)CCCl)cc2)OC)OC1(C)C (stereo partly drawn) [Compound 49] | 4.8 ± 0.9 µM | 1.7 ± 0.2 µM | 6.7 ± 0.5 µM | 6 ± 0.1 µM | 5.8 ± 0.8 µM | 5.4 ± 0.8 µM | 6 ± 1 µM | 1.3 ± 0.2 µM | 9.7 ± 0.5 µM | 5.1 ± 0.8 µM
CON(CCCCc1ccc(N(CCCl)CCCl)cc1)C1CC(O)C(O)C(C)O1 (stereo not drawn) [Compound 50] | 3.1 ± 0.2 µM | 2.5 ± 0.2 µM | 5.5 ± 0.1 µM | 3.2 ± 0.2 µM | 3.1 ± 0.2 µM | 3.2 ± 0.1 µM | 3.8 ± 0.2 µM | 4.8 ± 0.5 µM | 5.7 ± 0.6 µM | 2.3 ± 0.8 µM
CON(CCCCc1ccc(N(CCCl)CCCl)cc1)C1OC(C)C(OC(C)=O)C(OC(C)=O)C1OC(C)=O (stereo not drawn) [Compound 52] | 3.2 ± 0.6 µM | 3.7 ± 0.2 µM | 4.5 ± 0.1 µM | 4.3 ± 0.2 µM | 3.5 ± 0.1 µM | 3.9 ± 0.1 µM | 4.6 ± 0.2 µM | 5 ± 0.4 µM | 7.8 ± 0.8 µM | 3 ± 0.1 µM
CON(CCCCc1ccc(N(CCCl)CCCl)cc1)C1OC[C@H](O)[C@H](O)[C@@H]1O (stereo partly drawn) [Compound 54, N-Methoxy-4-(4-N′,N′-bis(2-chloroethyl)amino)phenylbutylamino-L-riboside] | 0.97 ± 0.02 µM | 2.1 ± 0.1 µM | 3.7 ± 0.1 µM | 2.2 ± 0.1 µM | 2.4 ± 0.1 µM | 2 ± 0.1 µM | 2.4 ± 0.1 µM | 3.3 ± 0.2 µM | 5.7 ± 0.6 µM | 2.1 ± 0.2 µM
CON(CCCCc1ccc(N(CCCl)CCCl)cc1)C1OC(COCc2ccccc2)C(OCc2ccccc2)C1OCc1ccccc1 (stereo not drawn) [Compound 57] | > 100 µM | > 100 µM | > 100 µM | > 100 µM | > 100 µM | > 100 µM | > 100 µM | 82 ± 7 µM | > 100 µM | > 100 µM
CON(CCCCc1ccc(N(CCCl)CCCl)cc1)[C@H]1O[C@H](CO)[C@H](O)[C@H](O)[C@@H]1O [Compound 58] | 1.5 ± 0.3 µM | 2.2 ± 0.1 µM | 3.3 ± 0.1 µM | 1.8 ± 0.4 µM | 2.6 ± 0.1 µM | 2 ± 0.1 µM | 2.4 ± 0.1 µM | 3 ± 0.3 µM | 5 ± 0.6 µM | 1.7 ± 0.1 µM
